Data set [1] is described as follows: Octanol-neutral buffer partition co-efficient, log D of the compound at pH 7.4.
The test system of data set [2] is Respiratory syncytial virus. As to the kind of experiment: Antiviral activity against Respiratory syncytial virus A2 infected in A549 cells after 3 days by CelltitreGlo assay. In kind it is functional, organism-based. The note with it: human respiratory syncytial virus, A2, A549, 72 h.
Data set [3] is described as follows: Apparent intrinsic clearance in human liver microsomes.
Data set [4] in a line: Apparent permeability in MDCK cells selected for low expression of efflux transporters. To be noted: dog.
Data set [5] in a line: Apparent permeability in dog RRCK cells. To be noted: MDCK.
Data set [6] relates to Hepatocyte. Nature of the data set: Apparent intrinsic clearance in human hepatocytes assessed per million cells.
Data set [7] can be described thus: Oral bioavailability in rat. The note with it: in vivo.
The nature of data set [8]: Half life in iv dosed rat. To be noted: in vivo.
Data set [9] is described as follows: Intrinsic clearance in rat plasma.
Data set [10] is described as follows: Drug excretion in rat urine. The data set is classed as ADME. The note with it: read-out: Drug excretion.
The nature of data set [11]: Oral absorption in rat. In kind it is ADME, organism-based. The note with it: in vivo.
A short description of data set [12]: Volume of distribution in steady state in rat. To be noted: in vivo.
Data set [13] relates to Liver microsomes. Nature of the data set: Apparent intrinsic clearance in rat liver microsomes assessed per mg protein.
Data set [14] is described as follows: Apparent intrinsic clearance in rat liver microsomes. The data set is classed as ADME, Microsome. The note with it: read-out: CLH(app). (Liver microsomes are a subcellular fraction often used to study metabolism.)

On to `CC(C)n1nc(Cn2nc3ccccc3c2C(=O)NCCCO)c2ccccc21`, for which, in data set [1], the logD (in general, the decadic logarithm of the distribution of all forms, ionised or not, between an organic phase and buffer at a given pH) is 2.4. For the same molecule, the IC50 – broadly, the concentration that gives 50% inhibition – in data set [2] came to 2.93 µM.
`Cn1ccnc1-c1cn(CCCCO)c(Cn2c(=O)n(C3CC3)c3ccncc32)n1` registered a pH-dependent lipophilicity (logD) in [1] of 0.8. Also, in [3], the microsomal CLint was less than 8 µL/min/mg. In addition, in data set [2], the IC50 was 10.4 µM.
Regarding `Cc1cc(CCn2cc(-c3cccnc3)nc2Cn2c(=O)n(C3CC3)c3ccncc32)on1`, the apparent permeability coefficient (Papp) (as a rule, the rate of passage across a membrane or cell layer, normalised by area and donor concentration) in [4] was determined as 3 ×10⁻⁶ cm/s. In [1], this molecule returned a logD of 1.4. The same molecule returned an IC50 in [2] of 0.041 µM.
As for `COCc1cn(CCCCO)c(Cn2c(=O)n(C3CC3)c3ccncc32)n1`, the Papp in data set [5] amounted to 1 ×10⁻⁶ cm/s. The molecule also displayed a logD in [1] of 0.2. In addition, in [3], the microsomal CLint was found to be 9 µL/min/mg. In [2], this molecule registered an IC50 of 6.09 µM.
Turning to `Cn1nccc1-c1cn(CCCCO)c(Cn2c(=O)n(C3CC3)c3ccncc32)n1`, in [1], the logD was found to be 0.9. Moreover, the microsomal CLint in [3] is less than 8 µL/min/mg. Besides, in data set [2], the concentration for half-maximal inhibition (IC50) was greater than 20 µM.
On to `O=c1n(Cc2nc(-c3ccccn3)cn2CCCCO)c2cnccc2n1C1CC1`, for which the “CLH(app)” value in [6] was less than 2.2 µL/min. Further, in data set [4], the Papp worked out at 5 ×10⁻⁶ cm/s. The molecule further registered a logD in data set [1] of 1.4. Moreover, the microsomal CLint in [3] is less than 8 µL/min/mg. The IC50 in [2] was found to be 0.233 µM.
In data set [1], `CC(C)n1nc(Cn2nc3ccccc3c2OCCCCO)c2ccccc21` gave a logD of 3.9. This molecule gave an IC50 in data set [2] of 0.065 µM.
Regarding `CC(C)n1nc(Cn2nc3ccccc3c2CCCO)c2ccccc21`, the Papp in data set [4] stood at 14 ×10⁻⁶ cm/s. In data set [1], this molecule displayed a logD of 3.8. In addition, the microsomal CLint in data set [3] stood at 78 µL/min/mg. Moreover, inhibition in data set [2] was half-maximal at 0.277 µM (IC50).
Consider `COC(=O)N1CCC(n2ccc(Cc3nc4ccccc4n3CCCCO)n2)CC1`, for which the Papp in data set [5] turned out to be 6 ×10⁻⁶ cm/s. Further, the logD in [1] was 2. Besides, the microsomal CLint in data set [3] came out at 110 µL/min/mg. Also, the half-maximal inhibitory concentration (IC50) in data set [2] is greater than 14.1 µM.
On to `CC(C)n1nc(CCn2nc(CCCCO)c3ccccc32)c2cnccc21`, for which the Papp in data set [4] amounted to 8 ×10⁻⁶ cm/s. The molecule further came in with a logD in [1] of 4.4. For the same molecule, the microsomal CLint in [3] worked out at 242 µL/min/mg. For the same molecule, in [2], the IC50 stood at 22.7 µM.
As to `O=c1n(Cc2nc(-c3nccs3)cn2CCCCO)c2cnccc2n1C1CC1`, the bioavailability (as a rule, the share of a dose that reaches the circulation, judged against a reference dose that is usually intravenous) in data set [7] stood at 34%. In addition, the “CLH(app)” value in data set [6] is less than 2.2 µL/min; in data set [13] it was 21.1 µL/min. In [8], the half-life (usually the time needed for the level to fall by half in the phase considered) is 1.5 h. Also, the apparent permeability (Papp) in data set [4] and in data set [5] was 4 ×10⁻⁶ cm/s each time. In addition, the CLint scaled (usually a measure of how fast metabolising enzymes remove a compound, apart from limits set by blood flow) in data set [9] is 48 mL/min/kg. In addition, in data set [10], the dose excreted was 16%. In [1], the logD turned out to be 1.3. The Fa in [11] is greater than 60%. Further, the Vd – broadly, the apparent volume that relates the amount in the body to the concentration in plasma or blood – in data set [12] was found to be 3.5 L/kg. Also, the microsomal CLint in data set [3] was less than 8 µL/min/mg. In addition, the IC50 in data set [2] turned out to be 0.058 µM.
Take `O=c1n(Cc2nc3c(n2CCCCO)CCCC3)c2cnccc2n1C1CC1`: the Papp in [5] was 4 ×10⁻⁶ cm/s. The logD in data set [1] amounted to 1.8. Besides, the microsomal CLint in data set [3] was 65 µL/min/mg. In data set [2], it took 0.004 µM to reach half-maximal inhibition (IC50).
Take `O=c1n(Cc2nc3ccccc3n2CCCCO)c2cnccc2n1C1CC1`: it took 0.013 µM to reach half-maximal inhibition in [2] (IC50).
Molecule `Cc1ncc(CCn2cc(-c3cccnc3)nc2Cn2c(=O)n(C3CC3)c3ccncc32)o1` gave a log distribution coefficient (logD) in [1] of 0.9. In addition, the microsomal CLint in data set [3] was found to be 10 µL/min/mg. Besides, the IC50 in [2] was found to be 2.23 µM.
Regarding `COC(=O)N1CCC(n2c(=O)n(Cc3nc4ccccc4n3CCCCO)c3ccccc32)CC1`, the Papp in [5] was determined as 36 ×10⁻⁶ cm/s. In data set [1], the logD is 3.4. Further, the microsomal CLint in data set [3] came out at 44 µL/min/mg. The molecule further had an IC50 in [2] of 0.0005 µM.
For `CC(C)n1nc(Cn2nc3ccccc3c2OCCCO)c2ccccc21`, the Papp in data set [4] is 16 ×10⁻⁶ cm/s. Moreover, in [1], the logD was 3.5. The microsomal CLint in data set [3] turned out to be 246 µL/min/mg. The midpoint of inhibition in data set [2], the IC50, lay at 0.992 µM.
Consider `COC(=O)c1nc(Cn2c(=O)n(C3CC3)c3ccncc32)n(CCCCO)c1C`, for which the Papp in [5] is 2 ×10⁻⁶ cm/s. In data set [1], the logD was 0.8. In addition, the microsomal CLint in data set [3] was determined as 9 µL/min/mg. Further, the IC50 in [2] was found to be 12.4 µM.
For `COC(=O)N1CCC(n2c(=O)n(Cc3nc(C)c(C)n3CCCCO)c3cnccc32)CC1` the same measures were 1 ×10⁻⁶ cm/s, -0.5, 15 µL/min/mg and 0.055 µM.
For the molecule `Cc1cc(CCn2cc(-c3cccnc3)nc2Cn2c(=O)n(C3CC3)c3ccncc32)no1`, the Papp in data set [4] came out at 4 ×10⁻⁶ cm/s. This molecule also showed a logD in [1] of 1.4. In [3], the microsomal CLint amounted to 17 µL/min/mg. In [2], this molecule yielded an IC50 of 0.139 µM.
As to `O=c1n(Cc2nc(Cl)c(Cl)n2CCCCO)c2cnccc2n1C1CC1`, the logD in data set [1] stood at 2. Further, the microsomal CLint in data set [3] was less than 8 µL/min/mg. In addition, the midpoint of inhibition in data set [2], the IC50, lay at 0.109 µM.
Consider `CC(C)n1nc(Cn2nc3ccccc3c2CCCCO)c2ccccc21`, for which, in data set [1], the logD worked out at 4.4. In addition, in data set [2], it took 0.219 µM to reach half-maximal inhibition (IC50).
In turn, `O=c1n(Cc2nc(-c3ncco3)cn2CCCCO)c2cnccc2n1C1CC1` registered a logD in data set [1] of 0.6. For the same molecule, the microsomal CLint in [3] was less than 8 µL/min/mg. The same molecule registered an IC50 in data set [2] of 0.095 µM.
As to `O=c1n(Cc2nc(-c3cccnc3)cn2CCCCO)c2cnccc2n1C1CC1`, the microsomal CLint is 44 µL/min/mg in data set [14] and less than 8 µL/min/mg in [3]. Besides, in data set [6], the “CLH(app)” value was less than 2.2 µL/min. Besides, the Papp in data set [4] came to 4 ×10⁻⁶ cm/s. In data set [9], this molecule registered an intrinsic clearance (CLint scaled) of 95 mL/min/kg. This molecule also returned a logD in [1] of 1.2. The molecule also displayed a concentration for half-maximal inhibition (IC50) in data set [2] of 0.265 µM.
Take `O=c1n(Cc2nc(-c3ncccn3)cn2CCCCO)c2cnccc2n1C1CC1`: the “CLH(app)” value in [6] was less than 2.2 µL/min. Moreover, the apparent permeability coefficient (Papp) in data set [4] amounted to 1 ×10⁻⁶ cm/s. The molecule further came in with a logD in data set [1] of 0.6. Also, the microsomal CLint in data set [3] is less than 8 µL/min/mg. This molecule registered an IC50 in data set [2] of 0.235 µM.
Turning to `CC(C)n1nc(Cn2c(=O)c3ccccc3n2CCCCO)c2ccccc21`, the Papp in [4] amounted to 32 ×10⁻⁶ cm/s. This molecule also returned a pH-dependent lipophilicity (logD) in data set [1] of 2.9. In data set [3], the microsomal CLint was determined as 462 µL/min/mg. It took 0.169 µM to reach half-maximal inhibition in data set [2] (IC50).
Consider `CC(=O)N1CCC(Cn2nc3ccccc3c2CCCCO)CC1`, for which the Papp in data set [5] worked out at 2 ×10⁻⁶ cm/s. Further, the logD in [1] was 1.5. Moreover, the microsomal CLint in data set [3] amounted to 11 µL/min/mg. In data set [2], this molecule returned an IC50 greater than 20 µM.
`Cc1nnc(-c2cn(CCCCO)c(Cn3c(=O)n(C4CC4)c4ccncc43)n2)s1` showed a pH-dependent lipophilicity (logD) in data set [1] of 0.9. In addition, the microsomal CLint in data set [3] is less than 8 µL/min/mg. The IC50 in data set [2] worked out at 5.11 µM.
For `CC(C)n1nc(Cn2nc3c(c2CCCCO)CCCC3)c2ccccc21`, the Papp in [4] was found to be 12 ×10⁻⁶ cm/s. In [1], this molecule gave a logD of 3.6. Besides, in [3], the microsomal CLint was greater than 320 µL/min/mg. The half-inhibitory concentration (IC50) in data set [2] was determined as 0.409 µM.
For `Cc1ccc(CCn2cc(-c3cccnc3)nc2Cn2c(=O)n(C3CC3)c3ccncc32)cn1` the same measures were 2 ×10⁻⁶ cm/s, 1.5, 32 µL/min/mg and 0.096 µM.

For the origin of these results see ChEMBL document CHEMBL2331263, “Non-benzimidazole containing inhibitors of respiratory syncytial virus” (Bioorg Med Chem Lett, 2013).
